pEC50, pIC50: −log10 of the molar value.
Legend:
Plasmodium falciparum [1] = assay: Antiplasmodial activity against Plasmodium falciparum 3D7 assessed as inhibition of parasitic growth; type: functional, organism-based
Plasmodium falciparum [2] = assay: Antimalarial activity against Plasmodium falciparum Dd2 assessed as reduction in parasitic growth; type: functional, organism-based
Plasmodium falciparum [3] = assay: Antimalarial activity against Plasmodium falciparum assessed as parasitic growth inhibition; type: functional, organism-based
Plasmodium falciparum [4] = assay: Antiplasmodial activity against Plasmodium falciparum Dd2 infected in human Erythrocyte measured after 72 hrs by SYBR green fluorescence dye based microplate reader analysis; type: functional, organism-based
Plasmodium falciparum [5] = assay: Antiplasmodial activity against chloroquine-sensitive Plasmodium falciparum 3D7 infected in human erythrocyte incubated for 72 hrs by SYBR green I staining based fluorescence assay; type: functional, organism-based; details: 3D7, Erythrocyte
Plasmodium falciparum [6] = assay: Antimalarial activity against CQ-resistant Plasmodium falciparum RKL9; type: functional, organism-based
Plasmodium falciparum [7] = assay: Antimalarial activity against Plasmodium falciparum 3D7 assessed as inhibition of parasite growth; type: functional, organism-based
Plasmodium falciparum [8] = assay: Antimalarial activity against chloroquine-sensitive Plasmodium falciparum NF54 assessed as reduction in cell growth; type: functional, organism-based
Plasmodium falciparum [9] = assay: Antimalarial activity against chloroquine-resistant Plasmodium falciparum K1 assessed as reduction in cell growth; type: functional, organism-based
Plasmodium berghei = assay: Antimalarial activity against Plasmodium berghei ANKA; type: functional, organism-based
[10] = Cytotoxicity against African green monkey Vero cells by MTT assay; type: toxicity, cell-based; details: African green monkey (Chlorocebus sabaeus)
Plasmodium falciparum [11] = assay: Antiplasmodial activity against Plasmodium falciparum NF54; type: functional, organism-based
Plasmodium falciparum [12] = assay: Antimalarial activity against chloroquine-sensitive Plasmodium falciparum 3D7 assessed as reduction in parasite growth incubated for 48 hrs by SYBR green assay; type: functional, organism-based; details: 3D7, 48 h
Plasmodium falciparum [13] = assay: Antimalarial activity against multi-drug resistant Plasmodium falciparum K1 assessed as reduction in parasite growth incubated for 48 hrs by SYBR green assay; type: functional, organism-based; details: K1, 48 h
HepG2 [14] = assay: Cytotoxicity against human HepG2 cells assessed as reduction in cell viability incubated for 24 hrs by MTT assay; type: functional
Plasmodium falciparum [15] = assay: Antimalarial activity against Plasmodium falciparum 3D7 assessed as reduction in parasite growth incubated for 48 hrs by Giemsa-staining counting based microscopic analysis; type: functional, organism-based; details: 3D7, 48 h
[16] = Cytotoxicity against African green monkey Vero cells assessed as reduction in cell viability incubated for 48 hrs by MTT assay; type: toxicity, cell-based; details: chlorocebus sabaeus
Plasmodium falciparum [17] = assay: Antimalarial activity against Plasmodium falciparum K1 assessed as reduction in parasitic growth incubated for 48 hrs by Giemsa-staining counting based microscopic analysis; type: functional, organism-based; details: K1, 48 h
Plasmodium falciparum [18] = assay: Antiplasmodial activity against chloroquine-resistant Plasmodium falciparum W2 assessed as parasitic growth inhibition incubated for 72 hrs by SYBR Green staining based fluorescence analysis; type: functional, organism-based; details: W2, 72 h
[19] = Cytotoxicity against African green monkey Vero cells assessed as reduction in cell viability measured after 24 hrs; type: toxicity, cell-based; details: African green monkey (Chlorocebus sabaeus)
Plasmodium falciparum [20] = assay: Antiplasmodial activity against chloroquine-sensitive Plasmodium falciparum 3D7 assessed as parasitic growth inhibition incubated for 72 hrs by SYBR Green staining based fluorescence analysis; type: functional, organism-based; details: 3D7, 72 h
Plasmodium falciparum [21] = assay: Antimalarial activity against Plasmodium falciparum W2 assessed as reduction in parasite growth incubated for 48 hrs by LDH assay; type: functional, organism-based; details: W2, 48 h
[22] = Cytotoxicity against African green monkey Vero cells; type: toxicity, cell-based; details: chlorocebus sabaeus
Plasmodium falciparum [23] = assay: Antimalarial activity against Plasmodium falciparum D6 assessed as reduction in parasite growth incubated for 48 hrs by LDH assay; type: functional, organism-based; details: D6, 48 h
Plasmodium falciparum [24] = assay: Antimalarial activity against chloroquine-sensitive Plasmodium falciparum 3D7 by SYBR green I assay; type: functional, organism-based
Plasmodium falciparum [25] = assay: Antimalarial activity against chloroquine-resistant Plasmodium falciparum Dd2 assessed as reduction in parasitic growth incubated for 72 hrs by Giemsa-staining based microscopic analysis; type: functional, organism-based; details: Dd2, 72 h
Plasmodium falciparum [26] = assay: Antiplasmodial activity against Plasmodium falciparum 3D7 infected in human erythrocytes assessed as growth inhibition after 72 hrs by SYBR Gren-I fluorescent dye based method; type: functional, organism-based; details: 3D7, 72 h
Plasmodium falciparum [27] = assay: Antimalarial activity against drug sensitive Plasmodium falciparum NF54 assessed as inhibition of parasite growth; type: functional, organism-based
HepG2 [28] = assay: Cytotoxicity against human HepG2 cells assessed as cell growth inhibition measured after 72 hrs by MTT assay; type: functional
Plasmodium falciparum [29] = assay: Antimalarial activity against Plasmodium falciparum K1 assessed as inhibition of parasitic growth; type: functional, organism-based
Plasmodium falciparum [30] = assay: Antimalarial activity against chloroquine resistant Plasmodium falciparum FcB1/Colombia assessed as inhibition of parasite growth incubated for 24 hrs by liquid scintillation spectrometer analysis; type: functional, organism-based

## CN(CCCCCCCCNc1ccnc2ccccc12)Cc1ccc(-c2ccc(-c3ccc(C#N)cc3)s2)cc1
Plasmodium falciparum [1]
  pIC50: 6.92
Plasmodium falciparum [2]
  pIC50: 7.15

## N#Cc1ccc(-c2ccc(-c3ccc(CNCCCCCCCCNc4ccnc5cc(Cl)ccc45)cc3)s2)cc1
Plasmodium falciparum [1]
  pIC50: 7.01
Plasmodium falciparum [2]
  pIC50: 6.76

## CC(CCCNCc1ccc(-c2csc3ccc(F)cc23)cc1)Nc1ccnc2cc(Cl)ccc12 (stereo unspecified)
Plasmodium falciparum [1]
  pIC50: 7.08
Plasmodium falciparum [2]
  pIC50: 6.73

## Fc1ccc2scc(-c3ccc(CNCCCNc4ccnc5ccccc45)cc3)c2c1
Plasmodium falciparum [1]
  pIC50: 7.73
Plasmodium falciparum [2]
  pIC50: 7.13

## Clc1ccc2c(Nc3ccncc3)ccnc2c1
Plasmodium falciparum [3]
  pIC50: 5.37

## C[C@H]1[C@H](OC(=O)CCC(=O)NCCNc2ccnc3cc(Cl)ccc23)O[C@@H]2O[C@@]3(C)CC[C@H]4[C@H](C)CC[C@@H]1[C@@]24OO3
Plasmodium falciparum [4]
  pEC50: 9.00
Plasmodium falciparum [5]
  pEC50: 8.57

## COc1cc(/C=N/Nc2ccnc3cc(Cl)ccc23)ccc1O
Plasmodium falciparum [6]
  pIC50: 8.05
Plasmodium falciparum [7]
  pIC50: 8.05

## C#Cc1ccc(-c2cn(CCNc3ccnc4cc(Cl)ccc34)nn2)cc1F
Plasmodium falciparum [8]
  pIC50: 6.82

## C#Cc1ccc(-c2cn(CCNc3ccnc4cc(Cl)ccc34)nn2)c(F)c1
Plasmodium falciparum [8]
  pIC50: 6.72
Plasmodium falciparum [9]
  pIC50: 6.68

## C#Cc1ccc(-c2cn(CCNc3ccnc4cc(Cl)ccc34)nn2)cc1
Plasmodium falciparum [9]
  pIC50: 6.74

## COc1cc2c(cc1OC)CC(Nc1ccnc3cc(Cl)ccc13)C2
Plasmodium berghei
  pIC50: 6.41

## O=C(NCCCNc1ccnc2cc(Cl)ccc12)C(=O)Nc1cc2c(cc1Cl)-c1ccccc1C2
[10]
  pIC50: 4.58
Plasmodium falciparum [11]
  pIC50: 6.36

## CCN(CC)CC#CCNc1ccnc2cc(Cl)ccc12
Plasmodium falciparum [12]
  pIC50: 7.34
Plasmodium falciparum [13]
  pIC50: 7.30
HepG2 [14]
  MLD50: 1481 µM

## CC1(C)c2ccccc2-c2cc(Cl)c(NC(=O)C(=O)NCCCNc3ccnc4cc(Cl)ccc34)cc21
[10]
  pIC50: 4.75
Plasmodium falciparum [11]
  pIC50: 6.49

## CCOC(=O)c1nn(CCNc2ccnc3cc(Cl)ccc23)c2c1C(C(C)C)C(C#N)=C(N)O2 (stereo unspecified)
Plasmodium falciparum [15]
  pEC50: 5.47
[16]
  CC50 at 48 h: 86100 nM
Plasmodium falciparum [17]
  pEC50: 6.52

## Clc1ccc2c(NNc3ccncc3)ccnc2c1
Plasmodium falciparum [3]
  pIC50: 5.43

## OB1OCc2ccc(OCc3cn(CCNc4ccnc5cc(Cl)ccc45)nn3)cc21
Plasmodium falciparum [18]
  pIC50: 5.42
[19]
  IC50 at 24 h: > 100000 nM
Plasmodium falciparum [20]
  pIC50: 5.38

## N=C(N=C(N)N)SCCCNc1ccnc2cc(Cl)ccc12
Plasmodium falciparum [21]
  pIC50: 5.67
[22]
  CC50: > 11400 nM

## O=C(CNCCCNc1ccnc2cc(Cl)ccc12)Nc1cc2c(cc1Cl)-c1ccccc1C21CCCC1
[10]
  pIC50: 4.90
Plasmodium falciparum [11]
  pIC50: 6.69

## N=C(N=C(N)N)SCCCCNc1cc(C(F)(F)F)nc2c(C(F)(F)F)cccc12
Plasmodium falciparum [23]
  pIC50: < 5.05
Plasmodium falciparum [21]
  pIC50: < 5.05
[22]
  CC50: > 8930 nM

## CCCCCCCC(=O)NCCCC(C)Nc1ccnc2cc(Cl)ccc12 (stereo unspecified)
Plasmodium falciparum [24]
  pIC50: 7.29
Plasmodium falciparum [25]
  pIC50: 3.96

## O=C(O)CNc1ccnc2cc(Cl)ccc12
Plasmodium falciparum [12]
  pIC50: < 5.00
Plasmodium falciparum [13]
  pIC50: < 5.00
HepG2 [14]
  MLD50: >1000 µM

## CCCC(=O)NCCCC(C)Nc1ccnc2cc(Cl)ccc12 (stereo unspecified)
Plasmodium falciparum [24]
  pIC50: 6.20
Plasmodium falciparum [25]
  pIC50: 3.23

## CCOC(=O)c1nn(CCNc2ccnc3cc(Cl)ccc23)c2c1C(c1ccccc1)C(C#N)=C(N)O2 (stereo unspecified)
Plasmodium falciparum [15]
  pEC50: 6.72
[16]
  CC50 at 48 h: 103000 nM
Plasmodium falciparum [17]
  pEC50: 6.60

## C[C@H](Cc1ccccc1)Nc1ccnc2cc(Cl)ccc12
Plasmodium berghei
  pIC50: 6.31

## CC1(C)[C@@H]2CC=C(CC(=O)Nc3ccnc4cc(Cl)ccc34)[C@H]1C2
Plasmodium falciparum [26]
  pEC50: 4.77
Plasmodium falciparum [27]
  pEC50: 4.67
HepG2 [28]
  CC50: 14300 nM
Plasmodium falciparum [29]
  pEC50: 5.11

## N=C(N=C(N)N)SCCNc1cc(C(F)(F)F)nc2c(C(F)(F)F)cccc12
Plasmodium falciparum [23]
  pIC50: 5.12
Plasmodium falciparum [21]
  pIC50: 5.09
[22]
  CC50: > 9420 nM

## CCOP(=O)(CCCN(O)C(=O)CCC(=O)N1CCN(c2ccnc3cc(Cl)ccc23)CC1)OCC
Plasmodium falciparum [30]
  pIC50: 5.57

## OB1OCc2ccc(OCc3cn(CCCNc4ccnc5cc(Cl)ccc45)nn3)cc21
Plasmodium falciparum [18]
  pIC50: 5.41
[19]
  IC50 at 24 h: > 100000 nM
Plasmodium falciparum [20]
  pIC50: 5.38
